The target of experiment [1] is Mitogen-activated protein kinase 10 (Homo sapiens, UniProt P53779). Kind of experiment: Dose response biochemical screening assay for inhibitors of c-Jun N-Terminal Kinase 3 (JNK3). [Related pubchem assays: 746 ].
In experiment [2] the target is T1, Short transient receptor potential channel 4 (Mus musculus, UniProt Q9QUQ5).
T1 sequence (Q9QUQ5 whole entry): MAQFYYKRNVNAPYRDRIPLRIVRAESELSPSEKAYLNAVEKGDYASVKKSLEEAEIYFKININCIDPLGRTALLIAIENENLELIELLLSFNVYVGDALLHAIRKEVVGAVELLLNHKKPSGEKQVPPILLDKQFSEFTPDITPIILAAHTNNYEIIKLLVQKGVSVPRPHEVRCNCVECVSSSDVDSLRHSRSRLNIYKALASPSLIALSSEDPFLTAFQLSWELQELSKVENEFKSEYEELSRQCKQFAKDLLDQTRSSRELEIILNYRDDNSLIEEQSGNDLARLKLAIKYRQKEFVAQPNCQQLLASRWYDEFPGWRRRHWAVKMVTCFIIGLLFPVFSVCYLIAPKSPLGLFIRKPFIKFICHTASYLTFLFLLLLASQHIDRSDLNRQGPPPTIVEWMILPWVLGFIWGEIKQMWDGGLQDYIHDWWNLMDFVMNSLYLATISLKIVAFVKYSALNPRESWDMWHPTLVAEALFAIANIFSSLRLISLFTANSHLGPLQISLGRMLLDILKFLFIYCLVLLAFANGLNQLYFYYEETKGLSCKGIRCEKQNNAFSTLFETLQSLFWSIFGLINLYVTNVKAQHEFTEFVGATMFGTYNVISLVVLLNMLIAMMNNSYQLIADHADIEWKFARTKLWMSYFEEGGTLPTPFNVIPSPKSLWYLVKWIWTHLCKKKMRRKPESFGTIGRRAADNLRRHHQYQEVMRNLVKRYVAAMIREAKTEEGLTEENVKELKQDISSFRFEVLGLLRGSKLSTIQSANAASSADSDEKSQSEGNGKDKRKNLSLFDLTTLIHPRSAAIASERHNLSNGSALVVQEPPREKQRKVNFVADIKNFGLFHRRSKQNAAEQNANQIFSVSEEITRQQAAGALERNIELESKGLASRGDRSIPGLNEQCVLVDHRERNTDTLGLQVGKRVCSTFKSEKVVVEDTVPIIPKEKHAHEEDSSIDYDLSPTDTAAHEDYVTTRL
Kind of experiment: block of DAMGO-driven TRPC4 calcium entry – cell-based, HEK293 TRPC4/mu-opioid, Fluo-4 calcium, dose response (AID 434942).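 Also: potency of inhibitors blocking the TRPC4 calcium response.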 Format: functional.

Experiment [3] has as its target T1, Short transient receptor potential channel 4. The experiment can be described thus: calcium entry via TRPC4 opening agents – cell-based, HEK293 TRPC4/mu-opioid, Fluo-4 calcium, dose response (AID 434937). The format is functional.
A short description of experiment [4]: blockers of HIV-1 envelope-mediated cell-cell fusion – cherry-pick, dose response (AID 652057). The format is functional, cell-based.
A short description of experiment [5]: HIV-1 AD8 envelope cell-cell fusion blockers – cherry-pick, dose response (AID 652062).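 Also: luciferase signal from cell-cell fusion driven by HIV-1 clade B AD8 Env; potency is for inhibitors of fusion seen as a drop in luminescence.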 Format: functional, cell-based.
A short description of experiment [6]: blockers of HIV-1 ZM109 envelope-driven cell-cell fusion – HeLa effector, CEM target cells, luciferase, cherry-pick, dose response (AID 652058).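 Also: luciferase signal from HIV-1 Env mediated cell-cell fusion of effector and target cells.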 Format: functional, cell-based.
Experiment [7] has as its target T2, Trace amine-associated receptor 1 (Homo sapiens, UniProt Q96RJ0).
T2 sequence (Q96RJ0 whole entry): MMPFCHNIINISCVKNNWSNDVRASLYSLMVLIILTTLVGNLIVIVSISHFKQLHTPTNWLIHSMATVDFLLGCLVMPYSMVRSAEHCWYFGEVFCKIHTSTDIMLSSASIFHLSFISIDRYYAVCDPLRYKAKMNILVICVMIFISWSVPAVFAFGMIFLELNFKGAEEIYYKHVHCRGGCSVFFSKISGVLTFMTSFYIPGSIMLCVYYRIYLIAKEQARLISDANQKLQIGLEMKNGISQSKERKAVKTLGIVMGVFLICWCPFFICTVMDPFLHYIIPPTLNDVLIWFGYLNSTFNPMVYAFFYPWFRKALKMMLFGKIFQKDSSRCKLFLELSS
Kind of experiment: Counterscreen for agonists of the human trace amine associated receptor 1 (hTAAR1): Fluorescence-based cell-based high throughput dose response assay to identify hTAAR1 agonist that also desensitize TAAR1 receptor response. Format: functional.

Experiment [8] can be described thus: cells. The format is functional, cell-based.
A short description of experiment [9]: cells. Format: functional, cell-based. This is another data set of the same source.
Experiment [10] deals with T2, Trace amine-associated receptor 1. Kind of experiment: Fluorescence-based cell-based high throughput dose response assay to identify agonists of the human trace amine associated receptor 1 (TAAR1). The format is functional.
For experiment [11], the target named is T3, DNA repair and recombination protein RAD54-like (Homo sapiens, UniProt Q92698).
T3 sequence (Q92698 whole entry): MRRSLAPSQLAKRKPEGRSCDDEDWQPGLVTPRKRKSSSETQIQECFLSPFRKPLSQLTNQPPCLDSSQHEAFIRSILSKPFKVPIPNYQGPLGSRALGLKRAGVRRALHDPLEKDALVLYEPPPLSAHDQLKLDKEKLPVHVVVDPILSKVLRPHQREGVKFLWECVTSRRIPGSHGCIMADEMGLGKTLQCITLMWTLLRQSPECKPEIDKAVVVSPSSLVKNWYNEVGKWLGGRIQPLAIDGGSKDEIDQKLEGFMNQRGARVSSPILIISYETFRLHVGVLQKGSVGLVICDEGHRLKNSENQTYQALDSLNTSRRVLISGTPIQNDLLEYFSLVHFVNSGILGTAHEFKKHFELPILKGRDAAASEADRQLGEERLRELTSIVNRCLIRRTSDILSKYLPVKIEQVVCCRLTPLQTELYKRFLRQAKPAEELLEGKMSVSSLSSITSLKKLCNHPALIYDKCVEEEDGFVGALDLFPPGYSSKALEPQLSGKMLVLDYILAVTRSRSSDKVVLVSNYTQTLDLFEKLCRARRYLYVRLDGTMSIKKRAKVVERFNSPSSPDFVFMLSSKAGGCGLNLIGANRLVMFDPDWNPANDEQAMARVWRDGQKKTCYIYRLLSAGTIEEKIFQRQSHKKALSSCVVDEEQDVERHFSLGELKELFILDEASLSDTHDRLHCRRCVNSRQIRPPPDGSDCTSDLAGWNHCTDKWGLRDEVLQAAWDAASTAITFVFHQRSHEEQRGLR
Kind of experiment: RAD54 Holliday junction migration blockers – biochemical, fluorescence, cherry-picked samples, dose series, confirmation (AID 651657). The format is functional.

The nature of experiment [12]: Trypanosoma cruzi growth suppression in host cells – NIH3T3 host cells, beta-gal luminescence, confirmation (AID 2044).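 Also: intracellular parasites grown in NIH/3T3 mouse fibroblasts as host cells; luminescent beta-galactosidase reporter signal from transgenic T. cruzi replicating inside host cells; inhibitors lower the luminescence signal.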 The format is functional, cell-based.
Experiment [13] can be described thus: NIH3T3 cell viability loss – ATP luminescence, mouse fibroblasts, counter-screen, dose response (AID 2010).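 Also: cells exposed to compound for about 90 hours before reading.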 The format is functional, cell-based.
Experiment [14] concerns the target Large T antigen (Simian virus 40, UniProt P03070). Format: functional, Betapolyomavirus macacae.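 Also: Confirmatory-stage PubChem screen for compounds that inhibit SV40 T antigen.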
In experiment [15] the target is T4, DNA repair protein RAD52 homolog (Homo sapiens, UniProt P43351).
T4 sequence (P43351 whole entry): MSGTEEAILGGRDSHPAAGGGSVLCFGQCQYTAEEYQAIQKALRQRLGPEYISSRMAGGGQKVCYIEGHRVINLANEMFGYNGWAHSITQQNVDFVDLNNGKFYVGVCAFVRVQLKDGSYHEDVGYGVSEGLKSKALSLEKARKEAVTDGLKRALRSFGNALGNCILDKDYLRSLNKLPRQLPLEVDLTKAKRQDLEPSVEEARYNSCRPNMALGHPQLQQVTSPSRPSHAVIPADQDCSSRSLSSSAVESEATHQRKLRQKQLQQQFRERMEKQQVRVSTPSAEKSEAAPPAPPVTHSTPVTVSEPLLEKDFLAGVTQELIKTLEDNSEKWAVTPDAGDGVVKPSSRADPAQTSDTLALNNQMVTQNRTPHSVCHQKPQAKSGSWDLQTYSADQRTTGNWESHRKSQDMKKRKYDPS
Format: functional, biochemical.

In experiment [16] the target is FAD-linked sulfhydryl oxidase ALR (Homo sapiens, UniProt P55789). Kind of experiment: ALR-catalysed DTT oxidation blockers – biochemical, H2O2 detection, luminescence, cherry-pick, dose response (AID 493248).
Sequence of FAD-linked sulfhydryl oxidase ALR (P55789 whole entry): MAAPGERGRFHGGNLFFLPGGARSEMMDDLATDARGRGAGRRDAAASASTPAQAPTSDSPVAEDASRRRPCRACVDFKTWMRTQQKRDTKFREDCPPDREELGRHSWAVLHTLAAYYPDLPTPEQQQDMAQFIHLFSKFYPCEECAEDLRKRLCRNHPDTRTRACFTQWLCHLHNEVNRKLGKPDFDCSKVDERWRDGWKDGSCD
Experiment [17] addresses Eukaryotic translation initiation factor 4E (Mus musculus, UniProt P63073). The experiment can be described thus: blockers of eIF4G binding by eIF4E – biochemical, TR-FRET, dose response (AID 855).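 Also: potency for disrupting eIF4E binding to eIF4GI seen as loss of FRET.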 The format is functional.
Experiment [18] is described as follows: A549 cell cytotoxicity, dose response, cytotoxicity control, plate reader, cherry-pick, antagonist series (AID 743412). The format is functional, cell-based.
Experiment [19] concerns INS1. The experiment can be described thus: INS-1E survival protection against cytokine death – cell-based, luminescence, retest, dose response (AID 449756).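 Also: cell death triggered by IL-1 beta plus TNF-alpha plus IFN-gamma mixture; protective hits raise ATP signal compared with cytokine alone wells.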 The format is functional. The settings on record: Rattus norvegicus.

Where a name gives a salt, the structure may show the parent alone. The source made the active and inactive calls.

Sequence of Mitogen-activated protein kinase 10 (P53779 whole entry): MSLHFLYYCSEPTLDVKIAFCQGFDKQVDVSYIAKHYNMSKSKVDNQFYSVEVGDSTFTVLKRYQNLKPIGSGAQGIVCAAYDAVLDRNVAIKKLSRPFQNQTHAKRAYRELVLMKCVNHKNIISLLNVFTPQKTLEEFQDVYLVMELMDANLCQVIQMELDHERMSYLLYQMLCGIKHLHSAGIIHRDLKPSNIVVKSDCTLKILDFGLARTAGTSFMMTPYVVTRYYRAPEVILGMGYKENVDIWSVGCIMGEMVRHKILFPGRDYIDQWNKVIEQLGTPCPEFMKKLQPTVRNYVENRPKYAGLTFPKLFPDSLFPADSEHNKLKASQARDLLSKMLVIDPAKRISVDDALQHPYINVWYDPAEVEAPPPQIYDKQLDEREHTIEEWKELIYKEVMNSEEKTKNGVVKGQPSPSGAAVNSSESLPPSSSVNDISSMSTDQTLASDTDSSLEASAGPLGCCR
Sequence of Eukaryotic translation initiation factor 4E (P63073 whole entry): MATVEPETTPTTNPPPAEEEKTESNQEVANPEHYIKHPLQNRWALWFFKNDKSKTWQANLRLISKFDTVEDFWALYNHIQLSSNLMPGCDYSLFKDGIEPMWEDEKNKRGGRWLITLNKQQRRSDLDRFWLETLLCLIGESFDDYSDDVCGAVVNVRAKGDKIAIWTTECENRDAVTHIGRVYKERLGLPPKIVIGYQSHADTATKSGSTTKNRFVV
Sequence of Large T antigen (P03070 whole entry): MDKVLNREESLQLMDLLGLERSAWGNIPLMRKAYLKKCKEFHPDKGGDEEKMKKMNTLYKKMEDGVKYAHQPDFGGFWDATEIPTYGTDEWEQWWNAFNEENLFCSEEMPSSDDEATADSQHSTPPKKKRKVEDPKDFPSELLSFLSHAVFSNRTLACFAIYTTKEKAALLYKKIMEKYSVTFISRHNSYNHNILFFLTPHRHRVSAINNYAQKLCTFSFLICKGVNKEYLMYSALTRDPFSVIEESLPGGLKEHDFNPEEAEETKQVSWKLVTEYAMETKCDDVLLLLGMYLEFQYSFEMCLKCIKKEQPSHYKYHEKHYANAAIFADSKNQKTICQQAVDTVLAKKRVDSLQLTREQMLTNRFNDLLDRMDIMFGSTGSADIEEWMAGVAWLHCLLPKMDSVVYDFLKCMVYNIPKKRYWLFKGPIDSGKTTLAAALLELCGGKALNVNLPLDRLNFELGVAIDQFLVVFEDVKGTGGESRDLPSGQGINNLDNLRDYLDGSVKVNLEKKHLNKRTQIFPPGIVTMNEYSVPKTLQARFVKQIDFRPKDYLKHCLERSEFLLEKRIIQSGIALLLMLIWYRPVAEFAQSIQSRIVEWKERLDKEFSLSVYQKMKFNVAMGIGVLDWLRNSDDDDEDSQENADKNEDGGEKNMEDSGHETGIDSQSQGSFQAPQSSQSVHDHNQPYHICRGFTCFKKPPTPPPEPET

For `Cn1nnnc1SCc1ccc(C(=O)Nc2nccs2)cc1`, in [1], the IC50 is 56.9 µM (not active).
As to `O=C(NC1CC1)C1=C[C@H](C2CCCCC2)C[C@H](OCc2ccc(CO)cc2)O1`, the concentration for a half-maximal effect (EC50) was 5.31 µM (active) in [2] and 4.22 µM (active) in experiment [3].
As to `CCOC(=O)c1c(C)[nH]c2ccc(O)cc12`, the 50% inhibitory concentration (IC50) in experiment [1] was > 93.1 µM (not active).
With `C[C@@H]1CN([C@@H](C)CO)C(=O)c2ccccc2-c2ccccc2CO[C@@H]1CN(C)C(=O)Nc1ccc2c(c1)OCO2`, the values for the AC50 in [4], in [5] and in experiment [6] were 0.318 µM (active), 1.6 µM (active) and 0.54 µM (active), respectively.
For the compound `O=C(O)C1C2C=CC(C2)C1C(=O)NCCC1=CCCCC1` (centres undefined), the IC50 in [7] and in experiment [8] was > 29.9 µM (inactive) throughout. In addition, the values for the EC50 in experiment [9] and in [10] were > 29.9 µM (inactive) and 0.916 µM (active), respectively.
In the case of `COc1ccccc1Nc1nc(NCC2CCCO2)c2ccccc2n1` (centres undefined), the AC50 in experiment [11] was 81.9 µM (active). The half-maximal effective concentration (EC50) in [12] was 0.194 µM (active); in experiment [2], 2.66 µM (active); in experiment [13] it was > 60 µM (not active).
Take `COc1ccc(C(CNC(=O)c2cc(SC)ccc2Cl)N(C)C)cc1` (centres undefined): the half-maximal effective concentration (EC50) in experiment [3] is 0.944 µM (active).
For the compound `Oc1ccc(C2CNCCc3c2cc(O)c(O)c3Cl)cc1` (centres undefined) [FENOLDOPAM MESYLATE], the values for the concentration for half-maximal inhibition (IC50) in experiment [7], in experiment [14] and in experiment [8] were 8.04 µM (active), > 100 µM (active) and > 29.9 µM (inactive), respectively. The figures for the AC50 in experiment [15] and in experiment [16] were 21.7 µM (active) and 1.37 µM (active), respectively. The EC50 in experiment [9] was > 29.9 µM (inactive); in experiment [10], 2.7 µM (active).
In the case of `O=C(O)CSc1nnc(COc2cccc3cccnc23)n1-c1cccc(C(F)(F)F)c1`, in [17], the IC50 is 50 µM (inactive).
As to `O=C(CCCn1c(=S)[nH]c2ccccc2c1=O)NCc1ccco1`, the IC50 in [1] is on record as 49.2 µM (not active).
Consider `CCOc1cc2[nH]c(=O)n(Cc3ccc(C(=O)NCCCN4CCC(C)CC4)cc3)c(=O)c2cc1OCC`, for which, in experiment [11], the half-maximal activity concentration (AC50) was 55.9 µM (active).
For `COCC(=O)N[C@@H]1CC[C@@H](CC(=O)NCc2ccccc2OC)O[C@@H]1CO`, the AC50 in experiment [18] is > 52 µM (inactive).
As for `CN1CCN(CCCC(=O)c2ccc(C3CCCC3)cc2)CC1`, the AC50 in experiment [15] was 19.7 µM (active).
On to `CCOC(=O)[C@]12CCCC=C1N(CCC1=CCCCC1)C(=O)[C@H](CC(=O)NCCc1ccccc1OC)C2`, for which the concentration for half-maximal inhibition (IC50) in [7] is 5.92 µM (active); in [8], 26.9 µM (inactive). Also, the EC50 in experiment [9] is > 29.9 µM (inactive); in experiment [10], 3.59 µM (active).
Consider `CCOC(=O)c1c(NC(=O)C[n+]2ccc(Cc3ccccc3)cc2)sc(C)c1C`, for which the AC50 is 5.35 µM (active) in experiment [19] and 20.5 µM (active) in experiment [15]. Moreover, the EC50 was 1.83 µM (active) in experiment [12] and > 60 µM (not active) in experiment [13].
With `NCCCCCC(=O)N/N=C/c1ccc2nccnc2c1`, the AC50 in experiment [15] is 16.3 µM (active).
Take `N#CCCSc1ncnc2c1oc1ccccc12`: the half-maximal inhibitory concentration (IC50) in [1] is recorded as 27.7 µM (not active).
Turning to `O=C(NCCc1ccc(O)cc1)c1[nH]c(C(F)(F)F)nc1-c1ccccc1`, the IC50 in experiment [7] was 5.53 µM (active); in experiment [8], > 29.9 µM (inactive). The EC50 in [9] is > 29.9 µM (inactive); in [10] it was 0.485 µM (active).
As for `CN(CCc1ccccn1)C1CC(=O)N(c2ccc(Cl)cc2)C1=O` (centres undefined), the concentration for a half-maximal effect (EC50) in experiment [3] is 2.11 µM (active).
Consider `Cc1cccn2c(=O)c3cc(C(=O)NCC4CCCO4)c(=N)n(C4CCCCC4)c3nc12` (centres undefined), for which the AC50 in experiment [11] was 56 µM (active).

The values are drawn from ChEMBL document CHEMBL1201862, “PubChem BioAssay data set” (2004).
